Reference: patent US11364219B2, “Methods and pharmaceutical compositions for treating microbiome dysregulations associated with circadian clock disruption” (INSERM (INSTITUT NATIONAL DE LA SANTÉ ET DE LA RECHERCHE …, priority 2016, dated 2022)

Assays:
Csnk2 = Csnk2 inhibitors listed as examples; cited from earlier work
[1] = tested on: mouse embryonic fibroblasts (MEFs); settings: U0126 treatment, data not shown
gut microbiota [2] = assay: 16S rRNA gene sequencing of gut microbiota, Nlrp6-deficient mice; assay type: in vivo, mouse; settings: apigenin- versus vehicle-treated Nlrp6-deficient mice, ANOSIM p=0.283
Source text: Mice and reagents. The Nlrp6-3xFlag-IRES-eGFP mouse was generated at the Institut Clinique de la Souris (Illkirch, France; further details available upon request). Age- and gender-matched Nlrp6-deficient (Nlrp6−/−) and control C57BL6/J mice had free access to a standard laboratory chow diet in a half-day light cycle exposure and temperature-controlled environment. All animal studies were approved by the local investigational review board (CEEA232009R) in an accredited establishment (N° B59-108) according to governmental guidelines N° 86/609/CEE. The experimental model of colitis was performed as previously described 10. […]
Microbiota analysis. […] Amplicons quantities were normalized using SEQUALPREP™ kit (Invitrogen) and pooled as a single library. […] Sequencing reads were primarily processed for quality control using the software MOTHUR. Forward and reverse reads were assembled to form contigs, reads not having perfectly matched specific primers and barcodes, having any ambiguous base and more than 8 homopolymers were removed from downstream analysis. Sequences not aligning to desired bacterial V3-V4 variable regions, suspected chimera and likely to be of non-bacterial origin were detected and removed. […] Indicator analysis was performed to identify prominent OTUs contributing to the differences between analysed groups. […] Statistical differences were determined by non-parametric Mann-Whitney Test.

gut microbiota [3] = assay: 16S rRNA gene sequencing of gut microbiota, wild-type mice; assay type: in vivo, mouse
Source text: (§1) Mice and reagents. The Nlrp6-3xFlag-IRES-eGFP mouse was generated at the Institut Clinique de la Souris (Illkirch, France; further details available upon request). Age- and gender-matched Nlrp6-deficient (Nlrp6−/−) and control C57BL6/J mice had free access to a standard laboratory chow diet in a half-day light cycle exposure and temperature-controlled environment. All animal studies were approved by the local investigational review board (CEEA232009R) in an accredited establishment (N° B59-108) according to governmental guidelines N° 86/609/CEE. The experimental model of colitis was performed as previously described 10. Tissue and blood sampling was performed under LD conditions, with ZTO being the start of the light period (8 a.m.) and ZT12 the vespertinal crepuscule (8 p.m.). Apigenin (750 μg/mouse; Santa Cruz) was intraperitoneally given twice a week at ZT6 for 1 or 3 weeks period.
Microbiota analysis. 16S rRNA gene variable region V3 and V4 was amplified using dual indexed fusion primers, in brief primers consist of illumina linker sequence, 12 base barcode sequence and heterogeneity spacer followed by either 16S rRNA gene specific forward (319F: […]; SEQ ID NO: 1) or reverse (806R: […]; SEQ ID NO: 2) primer sequences 29. […] Amplicons quantities were normalized using SEQUALPREP™ kit (Invitrogen) and pooled as a single library. […] Sequencing reads were primarily processed for quality control using the software MOTHUR. Forward and reverse reads were assembled to form contigs, reads not having perfectly matched specific primers and barcodes, having any ambiguous base and more than 8 homopolymers were removed from downstream analysis. Sequences not aligning to desired bacterial V3-V4 variable regions, suspected chimera and likely to be of non-bacterial origin were detected and removed. […] Indicator analysis was performed to identify prominent OTUs contributing to the differences between analysed groups. Non parametric Shannon index of diversity was calculated as a measure of alpha diversity index. Statistical differences were determined by non-parametric Mann-Whitney Test.

colonic IECs [4] = assay: Colonic IEC proliferation immunostaining (Ki67), Nlrp6-deficient mice; assay type: in vivo, mouse; settings: three-week regimen of apigenin
Source text: as §1
(§2) Immunohistochemistry, Immunofluorescence and histological analysis. Intestinal tissue was fixed in formalin, dehydrated in series of increasing concentration of alcohols and toluene before being embedded in paraffin. For immunohistochemistry, 5 μm-thick tissue sections were placed on Superfrost Plus slides (Thermo Scientific), incubated for 10 min at 60° C. and rehydrated through a series of graded alcohols and distilled water. Endogenous peroxidases were blocked by 3% hydrogen peroxide for 10 min. […]

clock machinery genes = assay: Microarray and qRT-PCR gene expression after apigenin administration; assay type: in vivo, mouse
Source text: as §1
Gene expression and microarray analysis. […] The resulting cDNA (equivalent to 5 ng of total RNA) was amplified using the SYBR Green real-time PCR kit and detected on a Stratagene Mx3005P (Agilent Technologies). […] Relative mRNA levels (2-Ct) were determined by comparing (a) the PCR cycle thresholds (Ct) for the gene of interest and Actb (ΔCt) and (b) ΔCt values for treated and control groups (ΔCt). […]

DSS-induced colitis [5] = assay: DSS colitis model in Nlrp6-deficient mice pre-treated with apigenin; assay type: in vivo, mouse
Source text: as §1
Immunohistochemistry, Immunofluorescence and histological analysis. Intestinal tissue was fixed in formalin, dehydrated in series of increasing concentration of alcohols and toluene before being embedded in paraffin. For immunohistochemistry, 5 μm-thick tissue sections were placed on Superfrost Plus slides (Thermo Scientific), incubated for 10 min at 60° C. and rehydrated through a series of graded alcohols and distilled water. Endogenous peroxidases were blocked by 3% hydrogen peroxide for 10 min. Antigen retrieval was performed in citrate buffer (10 mM, pH 6) by steaming sections in a microwave oven for 20 min. Tissue sections were blocked with 5% BSA/PBS for 30 min at RT and primary Ab against either Ki67 (1:100, ab15580, Abcam), M2 Ab to Flag (1:100, F3165, Sigma) or cleaved caspase3 (1:50, 9661, Cell Signalling) was directly applied and incubated one hour at room temperature (RT) or overnight at 4° C. Slides were washed 3× in PBS before applying either secondary peroxidase-conjugated goat anti-rabbit IgG (1:100, Interchim) or peroxidase conjugated goat anti-mouse IgG (1:100, Interchim) Ab two hours at RT. […]

colonic IECs [6] = assay: Colonic IEC proliferation and apoptosis immunostaining (Ki67, caspase-3), wild-type mice; assay type: in vivo, mouse
Source text: as §1, §2

DSS-induced colitis [7] = assay: DSS colitis model in wild-type mice pre-treated with apigenin; assay type: in vivo, mouse
Source text: as §1
Immunohistochemistry, Immunofluorescence and histological analysis. Intestinal tissue was fixed in formalin, dehydrated in series of increasing concentration of alcohols and toluene before being embedded in paraffin. For immunohistochemistry, 5 μm-thick tissue sections were placed on Superfrost Plus slides (Thermo Scientific), incubated for 10 min at 60° C. and rehydrated through a series of graded alcohols and distilled water. Endogenous peroxidases were blocked by 3% hydrogen peroxide for 10 min. Antigen retrieval was performed in citrate buffer (10 mM, pH 6) by steaming sections in a microwave oven for 20 min. Tissue sections were blocked with 5% BSA/PBS for 30 min at RT and primary Ab against either Ki67 (1:100, ab15580, Abcam), M2 Ab to Flag (1:100, F3165, Sigma) or cleaved caspase3 (1:50, 9661, Cell Signalling) was directly applied and incubated one hour at room temperature (RT) or overnight at 4° C. Slides were washed 3× in PBS before applying either secondary peroxidase-conjugated goat anti-rabbit IgG (1:100, Interchim) or peroxidase conjugated goat anti-mouse IgG (1:100, Interchim) Ab two hours at RT. Targeted antigens were visualized by using 3.3′-diaminobenzidine solution (BD Pharmingen) followed by nuclear counterstain with hematoxylin. Immunofluorescence staining procedure was done by incubation overnight at 4° C. of primary antibody against Lysozyme (A0099, Dako) at 1:1000 according to the protocol provided by Cell Signalling Technology. Secondary Ab (1:200, A11008, Life Technologies) was applied for 1 hour at RT followed by nuclear counterstain with DAPI. Tissue sections were covered by using ProLong® Gold Antifade reagent (Life Technologies). Microscopic analyses were performed by using the Zeiss Axioplan 2 imaging microscope, Axio Imager Z1 microscope, Axiovision software (all from Zeiss, Oberkochen, Germany), and ImageJ software. Staining of cryosections […] was performed to stain GFP on colonic tissue according to manufacturer's instructions (Cell Signaling Technology). Polyclonal rabbit anti-GFP Ab (1/1000, Molecular Probes) and monoclonal rat anti-integrin 6 Ab (1/100, BD Pharmingen) were used as primary Abs and incubated together on the samples for 3 hours at RT. Secondary AF488-coupled goat anti-rabbit Ab and AF594-coupled goat anti-rat Ab (1:500, Molecular Probes) applied for 1 hour at RT followed by counterstain with DAPI. Sections were covered with Mowiol.

[8] = wild-type mice, DSS, apigenin administration

In the case of `O=C(O)c1ccc2c(c1)nc(Nc1cccc(Cl)c1)c1ccncc12` [CX-4945, 5-(3-Chloro-phenylamino)-benzo[c] [2,6] naphthyridine-8-carboxylicacid], the IC50 (Csnk2) is listed as 2 nM.

In the case of `O=C(O)Cc1c2ccccc2n2c1[nH]c(=O)c1ccccc12` [IQA, 5-oxo-5,6-dihydroindolo-(1,2-a) quinazolin-7-yl acetic acid], the IC50 (Csnk2) is given as 390 nM.

In the case of `O=c1c2c(O)cccc2oc2c([N+](=O)[O-])ccc(O)c12` [MNX, 1,8-dihydroxy-4-nitro-xanthen-9-one], the Ki (Csnk2) is listed as 800 nM.

In the case of `O=C(O)/C=C/c1cc(Br)c(Br)c(Br)c1Br` [TBCA, (E)-3-(2,3,4,5-tetrabromophenyl)acrylic acid], the Ki (Csnk2) is given as 77 nM.

In the case of `Brc1c(Br)c(Br)c2[nH]cnc2c1Br` [TBI, 4,5,6,7-1H-tetrabromobenzimidazole], the Ki (Csnk2) is given as 300 nM.

For `CC(C(=O)O)N1C(=O)c2c(I)c(I)c(I)c(I)c2C1=O` (stereo not shown) [TID46, 2-(4,5,6,7-tetraiodo-1,3-dioxo-1,3-dihydro-2Hisoindol-2-yl)propanoic acid], the IC50 (Csnk2) is listed as 150 nM.

In the case of `N#CC(=C(/N)Sc1ccccc1N)/C(C#N)=C(\N)Sc1ccccc1N` [U0126], the “growth rate of treated wild-type MEFs versus similarly treated Nlrp6-deficient MEFs” value [1] is reported as “comparable”.

In the case of `O=c1cc(-c2ccc(O)cc2)oc2cc(O)cc(O)c12` [apigenin, 4′,5,7-trihydroxyflavone], the “global changes in the composition of the gut microbiota” value (gut microbiota [2]) is reported as “failed to observe global changes”, the “Clostridium sensu stricto and unclassified Ruminococcacceae” value (gut microbiota [3]; apigenin treatment in wild-type mice) is reported as “reduction” and the “genera derived from Bacteroidetes (Alistipes, Parasatuerlla, Bacteroides)” value (gut microbiota [3]; apigenin-induced changes among bacterial OTUs) is reported as “expansion”. For the same compound, the “gut microbiota composition versus controls” value (gut microbiota [3]; apigenin-treated wild-type mice, ANOSIM on Jaccard distances, p=0.015) was “markedly different”, the “anti-proliferative effect (Ki67)” value (colonic IECs [4]) was “abrogated” and the “colonic transcript levels of several clock machinery genes (qRT-PCR)” value (clock machinery genes; apigenin administration, through Nlrp6) was “significantly influenced”. For the same compound, the “genes differentially expressed (microarray)” value (clock machinery genes; wild-type mice, Logfc of 1.5, upon apigenin administration) was 54, the “wasting disease (body weight loss)” value (DSS-induced colitis [5]; apigenin 3 weeks before 2% DSS) was “failed to improve wasting disease” and the colon length (DSS-induced colitis [5]; apigenin, DSS) was “did not alter colon length”. The “inflammation in histological analysis” value (DSS-induced colitis [5]; apigenin, DSS) was “had no effect on inflammation”, the “number of caspase-3 positive IECs” value (colonic IECs [6]; three-week regimen of apigenin) was “without any change” and the “IEC proliferation (Ki67 Ab staining)” value (colonic IECs [6]; three-week regimen of apigenin (750 μg/mouse, twice a week)) was “lowered IEC proliferation”. The anti-inflammatory effect (DSS-induced colitis [7]; mice housed in darkness for three circadian cycles during DSS exposure) was “no anti-inflammatory effect”, the body-weight loss (DSS-induced colitis [7]; wild-type mice on LD cycles, apigenin 3 weeks (750 μg/mouse, twice a week) before 2% DSS) was “less severe body-weight loss” and the colon length (DSS-induced colitis [7]; [8]) was “greater colon length”. For the same compound, the disease-activity index (DSS-induced colitis [7]; [8]) was “lower disease-activity index” and the “infiltration of inflammatory cells (H&E-stained colon sections)” value (DSS-induced colitis [7]; wild-type mice, DSS, versus controls) was “reduced infiltration of inflammatory cells”.

For `Cc1ccc2c(c1S(=O)(=O)O)SC(c1ccc3c(c1)SC(c1ccc(N(C)C)cc1)N3C)N2C` (stereo not shown) [compound 1, 2′-(4-Dimethylamino-phenyl)-3,6,3′-trimethyl-[2,6′]bibenzothiazolyl-7-sulfonic acid], the IC50 (Csnk2) is listed as 500 nM.

In the case of `O=C(O)c1c[nH]c2c(Cl)cc(Cl)c(Cl)c2c1=O` [compound 7, 5,6,8-trichloro-4-oxo-1,4-dihydroquinoline-3-carboxylic acid], the Ki (Csnk2) is listed as 60 nM.

In the case of `O=C(O)/C=C/c1ccc[c]([Sb](=[O])([OH])[OH])c1` [compound 10, (E)-3-(3-stibonophenyl)prop-2-enoic acid], the IC50 (Csnk2) is given as 150 nM.

In the case of `O=C(O)c1cc(Br)c(Br)c(Br)c1` [compound 26, 3,4,5 tribromobenzoic acid], the IC50 (Csnk2) is given as 640 nM.

In the case of `O=C(O)c1c(Br)c(Br)c(Br)c(Br)c1-c1c2ccc(=O)cc-2oc2cc(O)ccc12` [compound 35, 2,3,4,5-tetrabromo-6-(6-hydroxy-3-oxo-3H-xanthen-9-yl)-benzoic acid], the IC50 (Csnk2) is listed as 80 nM.

In the case of `Cc1cc(O)c2c(c1)C(=O)c1cc(O)cc(O)c1C2=O` [emodin, 6-methyl-1,3,8-trihydroxyanthraquinone], the Ki (Csnk2) is listed as 1500 nM.

For `O=C1C=C2CC3(O)COc4c(ccc(O)c4O)C3=C2C=C1O` (stereo not shown) [hematein, 3,4,6a,10-tetrahydroxy-6,7-dihydroindeno[2,1-c] chromen-9-one], the IC50 (Csnk2) is given as 550 nM.
